{"source": "paper PMC7369637", "about": "“Inhibition of Resistance-Refractory P. falciparum Kinase PKG Delivers Prophylactic, Blood Stage, and Transmission-Blocking Antiplasmodial Activity” (Cell Chemical Biology, 2020)", "key": {"[1]": {"system": "3D7-A10 parasites (rings, trophozoites, schizonts)", "experiment": "ABS stage-specific 8-h exposure assay on highly synchronized parasites", "assay_type": "cell-based, Plasmodium falciparum", "details": "for IC50: 3D7-A10, 8 h exposure", "experimental": "Synchronicity was achieved using three rounds of sorbitol treatment on early rings, spaced 48 h apart, followed by magnetic purification of segmented schizonts following the final sorbitol treatment. Parasites were highly synchronous to within a 3 h window of development. Assays were repeated on at least three independent occasions (each with technical duplicates) and statistical significance was assessed using Mann Whitney U tests."}, "[2]": {"system": "recombinant TKL3 kinase domain", "experiment": "Radioactive in vitro kinase assay with recombinant TKL3 kinase domain", "assay_type": "biochemical, Plasmodium falciparum", "details": "20 μM compound", "experimental": "Recombinant proteins were expressed in E. coli as previously described ([Abdi et al., 2010]). […] The cultures were then cooled to 20°C followed by induction of protein expression with 0.5 mM IPTG and further incubation at 20°C, 200 rpm for 16 h. Cultures were harvested by centrifugation at 4000g, 4°C for 10 min. Bacterial pellets were washed once in 1× PBS and were stored at −80°C. Cell pellets were resuspended in ice-cold Lysis Buffer (50 mM sodium phosphate, pH 8.0, 400 mM NaCl, 5 % (w/v) glycerol, 0.1 % (v/v) Triton X-100, 20 mM imidazole, 2 mM β-mercaptoethanol, 1× Roche protease inhibitor cocktail EDTA-free, 1 mg/ml lysozyme). Cells were disrupted by sonication. Protein was bound on a HisTrap HP column and eluted with a linear gradient of increasing imidazole concentrations. The peak fractions as determined by A280 trace were pooled together and further purified by size exclusion chromatography on a S200 gel filtration column equilibrated in 25 mM Tris pH 7.5, 100 mM NaCl, 5 % (w/v) glycerol, 1 mM DTT. Protein was pooled and concentrated. Final concentration was determined using a Bradford assay with a BSA protein standard.\nKinase assays containing 3 μg of recombinant kinase (WT or mutant) were performed in kinase assay buffer (25 mM Hepes, pH 7.5, 2 mM MnCl2, 10 mM β-glycerophosphate, 10 mM NaF, 25 μM ATP (containing 5 μCi [γ-^32P]-ATP-3000 mCi/mmol (PerkinElmer)), 5 μg substrate myelin basic protein (MBP) and ± 20 μM inhibitor) in a final reaction volume of 20 μl and incubated at 30°C for 30 min. Reactions were stopped by the addition of 5× Laemmli sample buffer and heated to 98°C for 5 min. Proteins were resolved by 4-12 % SDS-PAGE and stained in Coomassie Brilliant Blue. Kinase activity was detected by phosphorimaging. Imaging was performed on a Typhoon 5 Biomolecular imager (GE Healthcare Life Sciences)."}, "[3]": {"system": "PP1 cKD line", "experiment": "Compound susceptibility assay using cKD lines (72 h, Renilla luciferase)", "assay_type": "cell-based, Plasmodium falciparum", "details": "Plasmodium falciparum", "excerpt": "(§1) To study the interaction between the compounds and PKG (PF3D7_1436600), AAT (PF3D7_1231400), CDPK1 (PF3D7_0217500), TKL3 (PF3D7_1349300), PP1 (PF3D7_1414400), and URP (PF3D7_0808300), cKD lines were generated by fusing the transcripts with RNA aptamers for translation regulation with the TetR/DOZI system ([Ganesan et al., 2016]). The right homology regions (RHR) of each target gene were amplified by PCR, using the primers listed in Table S1 (A), and along with the left homology regions (LHR) were fused to the re-codonized 3'-end region of the gene. Single guide RNA fragments were synthesized using the BioXP™ 3200 System (SGI-DNA; Table S1 (A)) and were cloned into the pSN054 vector ([Nasamu et al., 2019]) to install the C-terminal epitope tags V5 and 2x-hemagglutinin (HA) followed by a 10x RNA aptamer array and the TetR-DOZI expression cassette. This cassette also contained Blasticidin S-deaminase for selection in the parasites and the reporter gene Renilla luciferase (RLuc). The 3'-end of each target was re-codonized to avoid further modifications of the edited locus in the parasite via removal of the PAM site. Donor vector generation was carried out via Gibson assembly, and the final construct sequence was confirmed by restriction digests and Sanger sequencing.\n(§2) Transfection into parasites was carried out by preloading erythrocytes with linearized vectors as described previously ([Deitsch et al., 2001]). Briefly, 50 μg of purified plasmid DNA was mixed with human RBC and subjected to 8 square wave electroporation pulses of 365 V for 1 ms each, separated by 0.1 s in a 0.2 cm cuvette. The plasmid DNA preloaded cells were inoculated with NF54 parasites expressing Cas9 and T7 RNA polymerase, maintained in 500 nM anhydrotetracycline (aTc, Sigma-Aldrich 37919), and drug selection with 2.5 μg/mL of Blasticidin (RPI Corp B12150-0.1) was initiated four days after transfection. Emergence of transfectants was monitored via Giemsa smears and RLuc measurements.\n(§3) Synchronized ring-stage cKD parasites in varying aTc concentrations (high = 50 nM, intermediate = 1.5 nM, low = 1 nM, and no aTc) were distributed into the drug plate. No-drug treatment and treatment with a lethal dose of chloroquine (200 nM) served as reference controls."}, "[4]": {"system": "CDPK1 cKD line", "experiment": "Compound susceptibility assay using cKD lines (72 h, Renilla luciferase)", "assay_type": "cell-based, Plasmodium falciparum", "details": "for IC50: Plasmodium falciparum, CDPK1 cKD line", "excerpt": "as §1, §2, §3"}, "[5]": {"system": "URP cKD line", "experiment": "Compound susceptibility assay using cKD lines (72 h, Renilla luciferase)", "assay_type": "cell-based, Plasmodium falciparum", "details": "Plasmodium falciparum", "excerpt": "as §1, §2, §3"}, "[6]": {"system": "PKG cKD line", "experiment": "Compound susceptibility assay using cKD lines (72 h, Renilla luciferase)", "assay_type": "cell-based, Plasmodium falciparum", "details": "for IC50: Plasmodium falciparum, PKG cKD line", "excerpt": "as §1, §2, §3"}, "[7]": {"system": "TKL3 cKD line", "experiment": "Compound susceptibility assay using cKD lines (72 h, Renilla luciferase)", "assay_type": "cell-based, Plasmodium falciparum", "details": "for IC50: Plasmodium falciparum, TKL3 cKD line", "excerpt": "as §1, §2, §3"}, "[8]": {"system": "AAT cKD line", "experiment": "Compound susceptibility assay using cKD lines (72 h, Renilla luciferase)", "assay_type": "cell-based, Plasmodium falciparum", "details": "for IC50: Plasmodium falciparum, AAT cKD line", "excerpt": "as §1, §2, §3"}}, "note": "Read-outs that look alike come from different tables or passages of the source."}
{"smiles": "CC(C)(CN)c1nc(-c2ccc(Cl)c(O)c2)c(-c2ccncc2)[nH]1", "note": "[MMV030084]", "values": [{"measurement": "IC50", "setting": "[1]; first shift of biphasic curve, read-out: Mean IC50, schizont biphasic shift 1", "value": 0.0956, "unit": "µM"}, {"measurement": "IC50", "setting": "[1]; second shift of biphasic curve, read-out: Mean IC50, schizont activity shift 2", "value": 3.93, "unit": "µM"}, {"measurement": "IC50", "setting": "[1]; read-out: Mean IC50, late ring stage activity", "value": 5.87, "unit": "µM"}, {"measurement": "Survival at plateau phase of biphasic schizont curve", "setting": "[1]; 3D7-A10 schizonts, 8 h exposure", "value": "~ 58%"}, {"measurement": "IC50", "setting": "[1]; Plasmodium falciparum, 3D7, 8 h, early and late rings averaged, read-out: Average IC50, rings", "value": 5.56, "unit": "µM"}, {"measurement": "IC50", "setting": "[1]; Plasmodium falciparum, 3D7, 8 h, early and late trophozoites averaged, read-out: Average IC50, trophozoites", "value": 3.25, "unit": "µM"}, {"measurement": "IC50", "setting": "[1]; Plasmodium falciparum, 3D7, 8 h, first shift of biphasic curve, read-out: Mean IC50, schizont biphasic shift 1", "value": 0.096, "unit": "µM"}, {"measurement": "IC50", "setting": "[1]; Plasmodium falciparum, 3D7, 8 h, second shift of biphasic curve, read-out: Mean IC50, schizont activity shift 2", "value": 3.93, "unit": "µM"}, {"measurement": "IC50", "setting": "[1]; Plasmodium falciparum, 3D7, 8 h, read-out: Mean IC50, early ring stage activity", "value": 5.25, "unit": "µM"}, {"measurement": "IC50", "setting": "[1]; Plasmodium falciparum, 3D7, 8 h, read-out: Mean IC50, early trophozoite activity", "value": 3.21, "unit": "µM"}, {"measurement": "IC50", "setting": "[1]; Plasmodium falciparum, 3D7, 8 h, read-out: Mean IC50, late ring stage activity", "value": 5.87, "unit": "µM"}, {"measurement": "IC50", "setting": "[1]; Plasmodium falciparum, 3D7, 8 h, read-out: Mean IC50, late trophozoite activity", "value": 3.28, "unit": "µM"}, {"measurement": "Reduction in TKL3 kinase activity", "setting": "[2]", "value": "no reduction"}, {"measurement": "IC50", "setting": "[3]; Control, [aTc] used 50.0", "value": 0.0392, "unit": "µM"}, {"measurement": "IC50", "setting": "[3]; KD, [aTc] used 1.5", "value": 0.057, "unit": "µM"}, {"measurement": "IC50", "setting": "[4]; Control, [aTc] used 50.0", "value": 0.0454, "unit": "µM"}, {"measurement": "IC50", "setting": "[4]; KD, [aTc] used 1.0", "value": 0.0415, "unit": "µM"}, {"measurement": "Change in susceptibility when CDPK1 was knocked down", "setting": "[4]; cKD vs control", "value": "No change"}, {"measurement": "IC50", "setting": "[5]; Control, [aTc] used 50.0", "value": 0.0359, "unit": "µM"}, {"measurement": "IC50", "setting": "[5]; KD, [aTc] used 0.0", "value": 0.0424, "unit": "µM"}, {"measurement": "IC50", "setting": "[6]; Control, [aTc] used 50.0", "value": 0.0274, "unit": "µM"}, {"measurement": "IC50", "setting": "[6]; KD, [aTc] used 1.0", "value": 0.0066, "unit": "µM"}, {"measurement": "Sensitization when PKG was knocked down", "setting": "[6]; cKD vs control", "value": 4.2, "unit": "fold"}, {"measurement": "IC50", "setting": "[7]; Control, [aTc] used 50.0", "value": 0.0424, "unit": "µM"}, {"measurement": "IC50", "setting": "[7]; KD, [aTc] used 0.0", "value": 0.0886, "unit": "µM"}, {"measurement": "Increase in IC50 induced by TKL3 knockdown", "setting": "[7]; cKD vs isogenic control", "value": 2.1, "unit": "fold"}, {"measurement": "IC50", "setting": "[8]; Control, [aTc] used 50.0", "value": 0.0506, "unit": "µM"}, {"measurement": "IC50", "setting": "[8]; KD, [aTc] used 0.0", "value": 0.0298, "unit": "µM"}, {"measurement": "Decrease in IC50 under AAT cKD conditions", "setting": "[8]; cKD vs control", "value": 1.7, "unit": "fold"}]}
